As usually defined, the inhibition is the change of the read-out against control, counted positive when it falls. Broadly, the Ki is the dissociation constant of the complex between target and ligand, obtained from inhibition or displacement.

Molecules are shown by their SMILES.

Here are results for 23 molecules from US7935823B2 (priority 2007, dated 2011).

Experiment [1] deals with butyrylcholine esterase (BuChE) (Homo sapiens, UniProt P06276). As to the kind of experiment: Butyrylcholine esterase assay. It counts as biochemical. As to conditions: compound concentration 10 uM; human serum enzyme; 560 uM S-butyrylthiocholine. The method, then: Butyrylcholine Esterase Assay.
The assay was conducted as follows [Ellman G. L., Courtney K. D., Andres Jr. V., and Featherstone R. N. A new and rapid colorimetric determination of acetylcholinesterase activity.

The target in a further experiment is T1, 5-HT6 Receptor (Homo sapiens, UniProt P50406).
T1 construct: expressed in transfected cells; host or cells: HeLa cells
Description: Binding with 5-HT6 receptor (radioligand binding). As to conditions: compound concentration 10 uM; ligand 1.5 nM [3H]-LSD. The method, then: Binding with 5-HT6 Receptor.
The assay was conducted as follows [Monsma F. J., Jr, Shen Y., Ward R. P., Hamblin M. W., and Sibley D. R. Cloning and Expression of a novel serotonin receptor with high affinity for tricyclic psychotropic drugs. Mol. Pharmacol. 1993, 43: 320-327]: • Receptor source: human recombinant HeLa cells; • Ligand: 1.5 nM [3H]-lysergic acid diethylamide (LSD); • Vehicle: 1% DMSO; • Incubation time: 2 hours at 37 C; • Incubation buffer: 50 mM Tris-HCl, pH 7.4, 150 mM NaCl, 2 mM ascorbic acid, 0.001% BSA; • Compound concentration: 10 uM; • Non-specific ligand: 5 uM serotonin (5-HT); • Quantitation method: radioligand binding

Experiment [2] relates to mitochondrial permeability transition pores. As to conditions: MPP(+) and beta-amyloid fragment 25-35; cited from earlier work.
Another experiment deals with NMDA receptor. As to conditions: read-out: NMDA receptor inhibition constant (Ki); cited from earlier work.
For a further experiment, the system named is C57BL/6 mice. As to the kind of experiment: Object recognition test, recognition of a new localization of an object. It counts as in vivo. As to conditions: for object exploration / discrimination ratio compared with control: 0.02 mg/kg; for time exploring the object in a familiar localization / time exploring the object in a new localization: 0.1 mg/kg, tested 48 hours after training. The source says:
Object recognition test as a method for research on the effects of some exemplary compounds on memory in mice.
The object recognition test is based on a spontaneous behavior of rats and mice to explore a novel object or a new localization of an object more often than a familiar one. This test was first developed for rats [Ennaceur A., Delacour J. A new one-trial test for neurobiological studies of memory in rats. 1: behavioral data. Behav. Brain Res. 1988; 31:47-59]. Thereafter, various researchers have shown that the test is also suitable for assessing memory performance in mice [e.g., Dodart J. C., Mathis C., Ungerer A. Scopolamine-induced deficits in a two-trial object recognition task in mice. NeuroReport 8 (1997), pp. 1173-1178]. The object recognition test is divided into two tests: a test of recognition of a new localization of an object that is used for research on spatial memory, and a test of recognition of a new object that is used for research on non-spatial memory.
Twenty (20) to twenty-two (22) month-old female mice (old mice) and four (4) to six (6) month-old male mice (young mice) of C57BL/6 strain were used. The animals were housed five per cage under a normal light cycle (12×12, light on at 8:00 AM) and with free access to water and food. The training box was made of white, opaque organic glass with dimensions of 48×38×30 cm. Two kinds of plastic items were used as objects for recognition: a white cylinder (d=4 cm, h=2.8 cm), and a black, three-edged prism (2.5×2.5×3.5 cm and h=3.4 cm). Care was taken to avoid olfactory stimuli by cleaning the objects and box carefully. Two (2) to three (3) min before the mice were placed into the box, the objects and the box were wiped with 85% ethanol. Animals were always placed in the middle of the training box.
Referring again to FIGS. 1A-1B and FIGS. 2A-2C, the mice were injected intraperitoneally with some of the various exemplary compounds shown in the figures, or with the vehicle (solvent) alone in the same volume, one hour before the recall trial.
On the first day of the experiment, the mice were handled in the research room for 20 to 30 min for acclimatization. Then, one by one, the mice were habituated to the training box by being placed into the box without any object for 20 min to explore the box, and were returned to their cages.
On the next day, the same mice were brought into a research room. After 20-30 min of acclimatization, each mouse was placed into an empty box for one minute. Then, the mouse was removed from the training box. Two identical objects (white cylinders) were placed approximately 5 inches distant from two adjacent corners of the box and immediately an animal was returned to the box. The time of exploring of each individual object was registered separately with the help of two electronic stop-watches (to within 0.1 sec). The behavior of each animal was observed through a mirror. Exploration was operationally defined as directing the nose to the object from a distance less than 2 cm, or touching the object with the nose. The duration of the training trial was 5, 10, 15 and 20 minutes.
[…] Testing was performed the same way as training, but one of the two familiar objects was changed to the new object (black prism).
When the recognition of a new localization of an object improved, the same experimental sequence was performed, except that only the localization of one of the familiar objects was changed in the testing session.
A significant variability of object exploration times between animals was measured. The ratio of object-exploration times was calculated as follows: each object-exploration time was divided by the sum of both of the object-exploration times during the same testing session, and expressed in percent: (tnew×100%)/(tfamiliar+tnew)
The data were analyzed using a one-way analysis of variance followed by a Student's t-test.

butyrylcholine esterase (BuChE), sequence (P06276 29-602): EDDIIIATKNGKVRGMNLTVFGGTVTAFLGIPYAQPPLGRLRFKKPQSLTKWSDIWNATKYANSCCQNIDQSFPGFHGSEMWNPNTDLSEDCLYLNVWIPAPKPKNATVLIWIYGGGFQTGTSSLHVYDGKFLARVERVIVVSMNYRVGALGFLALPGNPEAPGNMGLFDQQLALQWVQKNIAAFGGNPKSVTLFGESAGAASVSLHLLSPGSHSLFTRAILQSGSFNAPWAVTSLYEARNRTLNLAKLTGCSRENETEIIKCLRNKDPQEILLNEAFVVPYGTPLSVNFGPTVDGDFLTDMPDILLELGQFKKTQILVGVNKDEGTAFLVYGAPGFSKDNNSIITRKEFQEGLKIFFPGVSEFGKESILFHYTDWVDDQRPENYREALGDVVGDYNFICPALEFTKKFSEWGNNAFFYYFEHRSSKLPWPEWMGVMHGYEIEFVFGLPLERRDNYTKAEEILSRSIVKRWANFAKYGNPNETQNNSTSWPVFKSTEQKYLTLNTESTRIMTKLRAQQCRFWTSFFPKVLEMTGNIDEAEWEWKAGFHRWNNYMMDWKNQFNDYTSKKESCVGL
T1 sequence (P50406 whole entry): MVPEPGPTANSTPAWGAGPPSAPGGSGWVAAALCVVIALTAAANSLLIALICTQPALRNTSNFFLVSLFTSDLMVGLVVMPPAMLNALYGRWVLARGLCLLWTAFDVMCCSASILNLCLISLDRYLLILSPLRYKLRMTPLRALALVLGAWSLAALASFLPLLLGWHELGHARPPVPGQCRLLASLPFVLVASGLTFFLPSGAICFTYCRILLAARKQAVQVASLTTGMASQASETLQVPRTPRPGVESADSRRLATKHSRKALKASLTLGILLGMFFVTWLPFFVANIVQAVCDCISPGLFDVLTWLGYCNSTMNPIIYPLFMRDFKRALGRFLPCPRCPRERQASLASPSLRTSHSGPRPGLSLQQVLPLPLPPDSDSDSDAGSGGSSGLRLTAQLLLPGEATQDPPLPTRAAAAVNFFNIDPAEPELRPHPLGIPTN

As to `CN1CCc2c(c3cc(OC(F)(F)F)ccc3n2CCc2cncc(F)c2)C1` [compound 10], the results for the inhibition at 10 µM (in experiment [1]; on 5-HT6 Receptor) were 100% and 95%, respectively.
`Nc1c2c(nc3ccccc13)CCCC2` [tacrine]: the “prevention of neurotoxin-induced opening of mitochondrial pores” value in experiment [2] is “prevented”.
Take `CN1CCc2c(c3ccccc3n2CCc2cncc(F)c2)C1` [compound 1]: the inhibition at 10 µM in experiment [1] was 75%; on 5-HT6 Receptor, 90%.
For the molecule `CCN1CCc2c(c3cc(C)ccc3n2CCc2cncc(F)c2)C1` [compound 12], the results for the inhibition at 10 µM (in experiment [1]; at 5-HT6 Receptor) were 89% and 101%, respectively.
For `CN1CCc2c(c3ccccc3n2CCc2ccc(C(F)(F)F)nc2)C1` [4-01] the same measures were 65% and 67%.
In the same order, the values of `CN1CCc2c(c3cc(F)cc(F)c3n2CCc2ccc(C(F)(F)F)nc2)C1` [4-07] are 20% and 79%.
For `CCN1CCc2c(c3cc(Cl)ccc3n2CCc2cncc(F)c2)C1` [compound 15] the same measures were 94% and 99%.
Regarding `CN1CCc2c(c3cc(F)ccc3n2CCc2cncc(F)c2)C1` [compound 3], the figures for the inhibition at 10 µM (in experiment [1]; at 5-HT6 Receptor) were 58% and 99%, respectively.
On to `CC12CC3CC(C)(C1)CC(N)(C3)C2` [memantine], for which the Ki on NMDA receptor was 0.5 µM.
Regarding `COc1ccc2c(c1)c1c(n2CCc2ccc(C(F)(F)F)nc2)CCN(C)C1` [I. 4-06], the inhibition at 10 µM came out at 99% in experiment [1] and 72% at 5-HT6 Receptor.
For `Cc1ccc2c(c1)c1c(n2CCc2ccc(C(F)(F)F)nc2)CCN(C)C1` [4-02] the same measures were 95% and 97%.
For `CN1CCc2c(c3cc(C(F)(F)F)ccc3n2CCc2cncc(F)c2)C1` [compound 9] the same measures were 95% and 103%.
In the same order, the values of `CN1CCc2c(c3cc(F)ccc3n2CCc2ccc(C(F)(F)F)nc2)C1` [4-03] are 34% and 72%.
On to `CC(=O)NCCc1c[nH]c2ccc(O)cc12` [N-acetylserotonin], for which the “prevention of neurotoxin-induced opening of mitochondrial pores” value in experiment [2] is “prevented”.
Turning to `CCN1CCc2c(c3ccccc3n2CCc2cncc(F)c2)C1` [compound 11], the inhibition at 10 µM in experiment [1] amounted to 66%; on 5-HT6 Receptor, 77%.
In the same order, the values of `COc1ccc2c(c1)c1c(n2CCc2cncc(F)c2)CCN(C)C1` [compound 6] are 99% and 96%.
In the same order, the values of `CCN1CCc2c(c3cc(F)ccc3n2CCc2cncc(F)c2)C1` [compound 14] are 53% and 88%.
On to `CN1CCc2c(c3cc(F)cc(F)c3n2CCc2cncc(F)c2)C1` [compound 8], for which, in experiment [1], the inhibition at 10 µM is 31%. The inhibition at 10 µM on 5-HT6 Receptor was found to be 91%. For the same molecule, in the experiment with C57BL/6 mice, the “effectiveness as memory stimulating agents relative to memantine” value is on record as “approximately 25 times”, the “object exploration / discrimination ratio compared with control” value is listed as “not different from that of the control mice”, the “time exploring the object in a familiar localization” value is recorded as 39.2+/−6.9% and the “time exploring the object in a new localization” value is listed as 60.8+/−6.9%.
For `Cc1ccc2c(c1)c1c(n2CCc2cncc(F)c2)CCN(C)C1` [compound 2], the inhibition at 10 µM in experiment [1] came to 87%; at 5-HT6 Receptor, 102%.
In the case of `CCN1CCc2c(c3cc(Cl)ccc3n2CCc2ccc(C(F)(F)F)nc2)C1` [4-08], the inhibition at 10 µM in experiment [1] turned out to be 100%; on 5-HT6 Receptor, 77%.
`CN1CCc2c(c3cc(Br)ccc3n2CCc2cncc(F)c2)C1` [compound 5]: the inhibition at 10 µM in experiment [1] is 96%. The inhibition at 10 µM at 5-HT6 Receptor worked out at 103%. Besides, in the experiment on C57BL/6 mice, the “effectiveness as memory stimulating agents relative to memantine” value was “approximately 25 times”, the “object exploration / discrimination ratio compared with control” value was “did not differ significantly from the control”, the “time exploring the object in a familiar localization” value was “approximately 43.0%” and the “time exploring the object in a new localization” value was 57+/−4.6%.
`CN1CCc2c(c3cc(Cl)ccc3n2CCc2ccc(C(F)(F)F)nc2)C1` [4-04]: the results for the inhibition at 10 µM (in experiment [1]; at 5-HT6 Receptor) were 97% and 100%, respectively.
With `CN1CCc2c(c3cc(Cl)ccc3n2CCc2cncc(F)c2)C1` [compound 4], the inhibition at 10 µM in experiment [1] is 91%; on 5-HT6 Receptor, 103%.
